Columns and labels:
BTK = molecular target: T1, BTK (Homo sapiens, UniProt Q06187); experiment: BTK degradation in TMD-8 cells (HTRF assay); assay type: cell-based; details: 6 h treatment, HTRF BTK degradation IC50 (DC50)
T1 construct: endogenous in cells; host or cells: TMD-8 cells
Method: TMD-8 cells were treated with compounds diluted in 0.2% DMSO, dilution was done according to the following protocol: (1) making 500×stock solution in DMSO from 1 mM by 6-fold dilution, total 8 doses were included; (2) making 2×solution in cell culture medium by transferring 0.5 μl 500×stock solution into 125 μl medium; (3) adding 15 μl of 2×solution to cells for incubation of 6 h.
After 6 h treatment, 10 μl 4×lysis buffer was added to each well; the plate was sealed and incubated for 30 min at room temperature on a plate shaker; Once the cells was lysed, 16 μL of cell lysate were transferred to a PE 384-well HTRF detection plate; 4 μL of pre-mixed HTRF antibodies were added to each well; the plate was covered with a plate sealer, and then spinned at 1000 rpm for 1 min, then incubated overnight at room temperature; the results were read on BMG PheraStar with HTRF protocol (337 nm-665 nm-620 nm).
(§1) The IC50 (DC50) value of a compound can be obtained by fitting the following equation Y=Bottom+(TOP−Bottom)/(1+((IC50/X)^hillslope)) wherein, X and Y are known values, and IC50, Hillslope, Top and Bottom are the parameters obtained by fitting with software. Y is the inhibition percentage (calculated from the equation), X is the concentration of the compound; IC50 is the concentration of the compound when the 50% inhibition is reached. The smaller the IC50 value is, the stronger the inhibitory ability of the compound is. Vice versa, the higher the IC50 value is, the weaker the ability the inhibitory ability of the compound is; Hillslope represents the slope of the fitted curve, generally around 1*; Bottom represents the minimum value of the curve obtained by data fitting, which is generally 0%±20%; Top represents the maximum value of the curve obtained by data fitting, which is generally 100%±20%. The experimental data were fitted by calculating and analyzing with Dotmatics data analysis software. HEK-293 Cell Treatment

HEK-293 cells = experiment: HEK-293 cytotoxicity detection (CellTiter-Glo); assay type: cell-based; details: Homo sapiens, 72 h incubation, read-out: HEK293
Text: as §1
HEK-293 cells were treated with compounds diluted in 0.2% DMSO, dilution was done according to the following protocol: (1) making 500×stock solution in DMSO from 5 mM by 4-fold dilution, total 8 doses were included; (2) making 2×solution in cell culture medium by transferring 0.5 ul 500×stock solution into 125 ul medium; (3) adding 50 ul of 2×solution to cells for incubation of 72 h.
25 μl of the CellTiter-Glo® Reagent [(Promega)—Cat No. G7572] was added to each well in the 96-well plate. The contents were mixed for 2 minutes on an orbital shaker to induce cell lysis. The plate was then allowed to incubate at room temperature for 10 minutes to stabilize luminescent signal. Luminescence was recorded on BMG PheraStar with luminescence protocol.
as §1, with “IC50” for “IC50 (DC50)”, “Wherein,” for “wherein,”, “software.” for “software. HEK-293 Cell Treatment”

T1 sequence (Q06187 whole entry): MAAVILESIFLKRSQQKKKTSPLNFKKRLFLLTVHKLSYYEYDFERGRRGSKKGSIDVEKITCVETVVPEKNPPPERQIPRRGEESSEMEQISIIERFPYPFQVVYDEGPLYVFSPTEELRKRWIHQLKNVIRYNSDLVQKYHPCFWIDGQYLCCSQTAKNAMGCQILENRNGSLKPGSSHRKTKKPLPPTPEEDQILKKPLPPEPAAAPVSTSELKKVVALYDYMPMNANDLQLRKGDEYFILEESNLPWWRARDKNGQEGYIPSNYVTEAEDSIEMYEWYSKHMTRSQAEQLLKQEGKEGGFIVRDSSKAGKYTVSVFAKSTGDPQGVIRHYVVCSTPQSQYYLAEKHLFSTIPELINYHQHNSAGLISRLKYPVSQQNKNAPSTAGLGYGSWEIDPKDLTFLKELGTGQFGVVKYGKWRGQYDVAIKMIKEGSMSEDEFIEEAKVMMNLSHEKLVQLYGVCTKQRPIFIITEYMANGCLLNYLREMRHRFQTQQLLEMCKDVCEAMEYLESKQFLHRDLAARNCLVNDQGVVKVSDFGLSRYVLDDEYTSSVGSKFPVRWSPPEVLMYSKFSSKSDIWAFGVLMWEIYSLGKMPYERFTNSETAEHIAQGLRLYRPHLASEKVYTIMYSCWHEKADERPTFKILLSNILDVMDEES

DC50 (BTK) [nM]	SMILES	IC50 (HEK-293 cells) [µM]
32.7	Cc1cc(-c2cc(Nc3ccc(N4CCN(CC5CCN(c6ccc(N7CCC(=O)NC7=O)cc6)CC5)CC4)nc3)ncn2)ccc1[C@@H](C)NC(=O)c1nc(C(C)(C)C)no1 [Example 13, (R)-3-(tert-butyl)-N-(1-(4-(6-((6-(4-((1-(4-(2,4-dioxotetrahydropyrimidin-1(2H)-yl)phenyl)piperidin-4-yl)methyl)piperazin-1-yl)pyridin-3-yl)amino)pyrimidin-4-yl)-2-methylphenyl)ethyl)-1,2,4-oxadiazole-5-carboxamide]	> 10
3.21	Cc1cc(-c2cc(Nc3ncc(N4CCN(CC5CCN(c6ccc(N7CCC(=O)NC7=O)cc6)CC5)CC4)cn3)ncn2)ccc1[C@@H](C)NC(=O)c1nc(C(C)(C)C)no1 [Example 14, (R)-3-(tert-butyl)-N-(1-(4-(6-((5-(4-((1-(4-(2,4-dioxotetrahydropyrimidin-1(2H)-yl)phenyl)piperidin-4-yl)methyl)piperazin-1-yl)pyrimidin-2-yl)amino)pyrimidin-4-yl)-2-methylphenyl)ethyl)-1,2,4-oxadiazole-5-carboxamide]	> 10
0.638	Cc1cc(-c2cc(Nc3ccc(N4CCN(CC5CCN(c6ccc(N7CCC(=O)NC7=O)cc6)CC5)CC4)nn3)ncn2)ccc1[C@@H](C)NC(=O)c1nc(C(C)(C)C)no1 [Example 15]	> 10
1.29	Cc1cc(-c2cc(Nc3ccc(N4CCN(CC5CCN(c6ccc(N7CCC(=O)NC7=O)cc6)CC5)CC4)cn3)ncn2)ccc1[C@@H](C)NC(=O)c1nc(C(C)(C)C)no1 [Example 16, (R)-3-(tert-butyl)-N-(1-(4-(6-((5-(4-((1-(4-(2,4-dioxotetrahydropyrimidin-1(2H)-yl)phenyl)piperidin-4-yl)methyl)piperazin-1-yl)pyridin-2-yl)amino)pyrimidin-4-yl)-2-methylphenyl)ethyl)-1,2,4oxadiazole-5-carboxamide]	> 10
2.2	Cc1cc(-c2cc(Nc3ccc(N4CCN(CC5CCN(c6ccc(N7CCC(=O)NC7=O)c(F)c6)CC5)CC4)cn3)ncn2)ccc1[C@@H](C)NC(=O)c1nc(C(C)(C)C)no1 [Example 17, (R)-3-(tert-butyl)-N-(1-(4-(6-((5-(4-((1-(4-(2,4-dioxotetrahydropyrimidin-1(2H)-yl)-3-fluorophenyl)piperidin-4-yl)methyl)piperazin-1-yl)pyridin-2-yl)amino)pyrimidin-4-yl)-2-methylphenyl)ethyl)-1,2,4-oxadiazole-5-carboxamide]	> 10
1.15	Cc1cc(-c2cc(Nc3ccc(N4CCN(CC5CCN(c6ccc(N7CCC(=O)NC7=O)c(C)c6)CC5)CC4)cn3)ncn2)ccc1[C@@H](C)NC(=O)c1nc(C(C)(C)C)no1 [Example 18, (R)-3-(tert-butyl)-N-(1-(4-(6-((5-(4-((1-(4-(2,4-dioxotetrahydropyrimidin-1(2H)-yl)-3-methylphenyl)piperidin-4-yl)methyl)piperazin-1-yl)pyridin-2-yl)amino)pyrimidin-4-yl)-2-methylphenyl)ethyl)-1,2,4-oxadiazole-5-carboxamide]	> 10
2.51	Cc1cc(-c2cc(Nc3ccc(N4CCN(CC5CN(c6ccc(C7CCC(=O)NC7=O)cc6)C5)CC4)cn3)ncn2)ccc1[C@@H](C)NC(=O)c1nc(C(C)(C)C)no1 (stereo partly drawn) [Example 19, 3-(tert-butyl)-N-((1R)-1-(4-(6-((5-(4-((1-(4-(2,6-dioxopiperidin-3-yl)phenyl)azetidin-3-yl)methyl)piperazin-1-yl)pyridin-2-yl)amino)pyrimidin-4-yl)-2-methylphenyl)ethyl)-1,2,4-oxadiazole-5-carboxamide]	> 10
1.23	Cc1cc(-c2cc(Nc3ccc(N4CC(CN5CCN(c6ccc(N7CCC(=O)NC7=O)cc6)CC5)C4)cn3)ncn2)ccc1[C@@H](C)NC(=O)c1nc(C(C)(C)C)no1 [Example 20, (R)-3-(tert-butyl)-N-(1-(4-(6-((5-(3-((4-(4-(2,4-dioxotetrahydropyrimidin-1(2H)-yl)phenyl)piperazin-1-yl)methyl)azetidin-1-yl)pyridin-2-yl)amino)pyrimidin-4-yl)-2-methylphenyl)ethyl)-1,2,4-oxadiazole-5-carboxamide]	> 10
2.11	Cc1cc(-c2cc(Nc3ccc(N4CCC(CN5CCN(c6ccc(N7CCC(=O)NC7=O)cc6)CC5)CC4)cn3)ncn2)ccc1[C@@H](C)NC(=O)c1nc(C(C)(C)C)no1 [Example 21, (R)-3-(tert-butyl)-N-(1-(4-(6-((5-(4-((4-(4-(2,4-dioxotetrahydropyrimidin-1(2H)-yl)phenyl)piperazin-1-yl)methyl)piperidin-1-yl)pyridin-2-yl)amino)pyrimidin-4-yl)-2-methylphenyl)ethyl)-1,2,4-oxadiazole-5-carboxamide]	> 10
1.58	Cc1cc(-c2cc(Nc3ccc(N4CCN(CC5CN(c6ccc(N7CCC(=O)NC7=O)cc6)C5)CC4)cn3)ncn2)ccc1[C@@H](C)NC(=O)c1nc(C(C)(C)C)no1 [Example 22, (R)-3-(tert-butyl)-N-(1-(4-(6-((5-(4-((1-(4-(2,4-dioxotetrahydropyrimidin-1(2H)-yl)phenyl)azetidin-3-yl)methyl)piperazin-1-yl)pyridin-2-yl)amino)pyrimidin-4-yl)-2-methylphenyl)ethyl)-1,2,4-oxadiazole-5-carboxamide]	> 10
1.14	Cc1cc(-c2cc(Nc3ccc(C4CN(CC5CCN(c6ccc(N7CCC(=O)NC7=O)cc6)CC5)C4)cn3)ncn2)ccc1[C@@H](C)NC(=O)c1nc(C(C)(C)C)no1 [Example 23, (R)-3-(tert-butyl)-N-(1-(4-(6-((5-(1-((1-(4-(2,4-dioxotetrahydropyrimidin-1(2H)-yl)phenyl)piperidin-4-yl)methyl)azetidin-3-yl)pyridin-2-yl)amino)pyrimidin-4-yl)-2-methylphenyl)ethyl)-1,2,4-oxadiazole-5-carboxamide]	2.9
5.63	Cc1cc(-c2cc(Nc3ccc(N4CCN(C[C@@H]5CCN(c6ccc(N7CCC(=O)NC7=O)cc6)C5)CC4)cn3)ncn2)ccc1[C@@H](C)NC(=O)c1nc(C(C)(C)C)no1 [Example 24, 3-(tert-butyl)-N—((R)-1-(4-(6-((5-(4-(((S)-1-(4-(2,4-dioxotetrahydropyrimidin-1(2H)-yl)phenyl)pyrrolidin-3-yl)methyl)piperazin-1-yl)pyridin-2-yl)amino)pyrimidin-4-yl)-2-methylphenyl)ethyl)-1,2,4-oxadiazole-5-carboxamide]	> 10
0.935	Cc1cc(-c2cc(Nc3ccc(N4CCN(C(=O)C5CN(c6ccc(N7CCC(=O)NC7=O)cc6)C5)CC4)cn3)ncn2)ccc1[C@@H](C)NC(=O)c1nc(C(C)(C)C)no1 [Example 25, (R)-3-(tert-butyl)-N-(1-(4-(6-((5-(4-(1-(4-(2,4-dioxotetrahydropyrimidin-1(2H)-yl)phenyl)azetidine-3-carbonyl)piperazin-1-yl)pyridin-2-yl)amino)pyrimidin-4-yl)-2-methylphenyl)ethyl)-1,2,4-oxadiazole-5-carboxamide]	> 10
0.899	Cc1cc(-c2cc(Nc3ccc(N4CCN(C(=O)C5CN(c6ccc(C7CCC(=O)NC7=O)cc6)C5)CC4)cn3)ncn2)ccc1[C@@H](C)NC(=O)c1nc(C(C)(C)C)no1 (stereo partly drawn) [Example 26, 3-(tert-butyl)-N-((1R)-1-(4-(6-((5-(4-(1-(4-(2,6-dioxopiperidin-3-yl)phenyl)azetidine-3-carbonyl)piperazin-1-yl)pyridin-2-yl)amino)pyrimidin-4-yl)-2-methylphenyl)ethyl)-1,2,4-oxadiazole-5-carboxamide]	> 10

From patent publication US12521440B2, “Degradation of bruton's tyrosine kinase (BTK) by conjugation of BTK inhibitors with E3 ligase ligand and methods of use” (BeOne Medicines I GmbH, priority 2021, dated 2026)
